Measurements taken from patent US10781181B2, “N-((het) arylmethyl)-heteroaryl-carboxamides compounds as plasma kallikrein inhibitors” (Kalvista Pharmaceuticals Limited, priority 2014, dated 2020).

Key:
Format in all cases: biochemical
[1] = molecular target: Human FXIa (Homo sapiens (Human), UniProt P03951); assay: Determination of the % inhibition for FXIa; conditions: 40 μM of the test compound, human FXIa, 25° C.; for inhibition at 40 µM: read-out: % Inhibition @ 40 μM (human FXIa)
Method: Determination of the % Inhibition for FXIa
Human FXIa (Enzyme Research Laboratories) was incubated at 25° C. with the fluorogenic substrate Z-Gly-Pro-Arg-AFC and 40 μM of the test compound. Residual enzyme activity (initial rate of reaction) was determined by measuring the change in […].

[2] = molecular target: Human KLK1 (Homo sapiens (Human), UniProt P06870); assay: Determination of the IC50 for KLK1; conditions: human KLK1, 25° C., substrate H-DVal-Leu-Arg-AFC
Method: Determination of the IC50 for KLK1
(§1) Human KLK1 (Callbiochem) was incubated at 25° C. with the fluorogenic substrate H-DVal-Leu-Arg-AFC and various concentrations of the test compound. Residual enzyme activity (initial rate of reaction) was determined by measuring the change in […] at 410 nm and the IC50 value for the test compound was determined.

[3] = molecular target: Human plasma kallikrein (Homo sapiens (Human), UniProt P03952); assay: Determination of the IC50 for plasma kallikrein; conditions: read-out: IC50 (human PKal)
Method: Determination of the IC50 for Plasma Kallikrein
as §1, with “plasma kallikrein (Protogen)” for “KLK1 (Callbiochem)”, “H-DPro-Phe-Arg-AFC” for “H-DVal-Leu-Arg-AFC”

Chain of Human plasma kallikrein (P03952 391-638): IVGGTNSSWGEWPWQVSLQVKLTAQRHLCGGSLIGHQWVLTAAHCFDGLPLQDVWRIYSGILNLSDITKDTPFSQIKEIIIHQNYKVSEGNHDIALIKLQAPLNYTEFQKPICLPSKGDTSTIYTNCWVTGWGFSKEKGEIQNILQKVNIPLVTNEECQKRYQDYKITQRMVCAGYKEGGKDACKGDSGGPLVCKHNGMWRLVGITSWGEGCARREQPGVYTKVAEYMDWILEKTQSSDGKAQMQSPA
Chain of Human plasma kallikrein (P03952 20-390 partner): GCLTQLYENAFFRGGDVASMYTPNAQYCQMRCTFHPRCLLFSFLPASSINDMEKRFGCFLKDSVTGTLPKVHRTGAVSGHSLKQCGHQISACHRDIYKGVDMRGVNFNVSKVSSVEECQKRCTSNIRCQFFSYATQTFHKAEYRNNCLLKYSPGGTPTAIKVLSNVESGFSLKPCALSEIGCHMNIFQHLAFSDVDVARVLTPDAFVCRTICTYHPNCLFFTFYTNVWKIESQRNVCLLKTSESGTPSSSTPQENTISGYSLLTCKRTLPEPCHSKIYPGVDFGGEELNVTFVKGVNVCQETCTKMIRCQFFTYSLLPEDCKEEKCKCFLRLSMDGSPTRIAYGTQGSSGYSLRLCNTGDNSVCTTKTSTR
Chain of Human FXIa (P03951 388-625 limits assumed): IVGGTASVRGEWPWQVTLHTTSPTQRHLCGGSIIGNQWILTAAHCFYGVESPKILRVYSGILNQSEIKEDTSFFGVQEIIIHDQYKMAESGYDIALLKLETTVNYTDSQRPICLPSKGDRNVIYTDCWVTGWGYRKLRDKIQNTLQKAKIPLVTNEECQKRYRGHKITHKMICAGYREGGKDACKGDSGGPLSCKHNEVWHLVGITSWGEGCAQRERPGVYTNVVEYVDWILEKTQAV
Chain of Human FXIa (P03951 19-387 partner limits assumed): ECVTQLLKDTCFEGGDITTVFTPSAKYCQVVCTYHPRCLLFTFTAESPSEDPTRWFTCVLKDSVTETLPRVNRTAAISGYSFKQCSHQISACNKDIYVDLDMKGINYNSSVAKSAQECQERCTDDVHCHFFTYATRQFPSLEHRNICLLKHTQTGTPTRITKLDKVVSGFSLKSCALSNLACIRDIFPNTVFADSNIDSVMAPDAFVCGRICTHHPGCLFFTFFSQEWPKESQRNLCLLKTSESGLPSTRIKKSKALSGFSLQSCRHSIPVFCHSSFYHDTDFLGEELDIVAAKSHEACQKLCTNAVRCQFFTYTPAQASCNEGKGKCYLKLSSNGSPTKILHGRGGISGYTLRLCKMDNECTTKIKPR
Chain of Human KLK1 (P06870 25-262): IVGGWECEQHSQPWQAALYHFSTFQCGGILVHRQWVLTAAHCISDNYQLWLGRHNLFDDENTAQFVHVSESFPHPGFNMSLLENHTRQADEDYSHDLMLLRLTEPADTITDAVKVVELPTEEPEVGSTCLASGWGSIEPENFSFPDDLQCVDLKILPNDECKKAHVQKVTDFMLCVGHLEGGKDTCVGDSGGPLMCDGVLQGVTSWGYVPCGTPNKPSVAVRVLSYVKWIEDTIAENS

Row | SMILES | inhibition at 40 µM [1] [%] | IC50 [2] [nM] | IC50 [3] [nM] | % Inhibition @ 40 μM (human FXIa) [1] [%]
1 | COCc1nn(Cc2ccc(Cn3ccccc3=O)cc2)cc1C(=O)NCCOc1ccccc1Cl [Example 6, N-[2-(2-chlorophenoxy)ethyl]-3-(methoxymethyl)-1-({4-[(2-oxopyridin-1-yl)methyl]phenyl}methyl)pyrazole-4-carboxamide] | 0 | > 10000 | 1890 | –
2 | COCc1nn(Cc2ccc(Cn3ccccc3=O)cc2)cc1C(=O)NCCOc1cc(Cl)ccc1F [Example 9, N-[2-(5-chloro-2-fluorophenoxy)ethyl]-3-(methoxymethyl)-1-({4-[(2-oxopyridin-1-yl)methyl]phenyl}methyl)pyrazole-4-carboxamide] | 0 | > 10000 | 191 | –
3 | COCc1nn(Cc2ccc(Cn3ccccc3=O)cc2)cc1C(=O)NCCOc1cc(F)cc(Cl)c1 [Example 10, N-[2-(3-chloro-5-fluorophenoxy)ethyl]-3-(methoxymethyl)-1-({4-[(2-oxopyridin-1-yl)methyl]phenyl}methyl)pyrazole-4-carboxamide] | 0 | > 10000 | 134 | –
4 | COCc1nn(Cc2ccc(Cn3ccccc3=O)cc2)cc1C(=O)NCCOc1ccc(F)c(Cl)c1 [Example 12, N-[2-(3-chloro-4-fluorophenoxy)ethyl]-3-(methoxymethyl)-1-({4-[(2-oxopyridin-1-yl)methyl]phenyl}methyl)pyrazole-4-carboxamide] | 0 | > 10000 | 266 | –
5 | Cc1ccc(Cl)cc1OCCNC(=O)c1cn(Cc2ccc(Cn3ccccc3=O)cc2)nc1N [Example 14, 3-amino-N-[2-(5-chloro-2-methylphenoxy)ethyl]-1-({4-[(2-oxopyridin-1-yl)methyl]phenyl}methyl)pyrazole-4-carboxamide] | 0 | > 40000 | 161 | –
6 | Cc1ccc(OCCNC(=O)c2cn(Cc3ccc(Cn4ccccc4=O)cc3)nc2N)cc1Cl [Example 15, 3-amlno-N-[2-(3-chloro-4-methylphenoxy)ethyl]-1-({4-[(2-oxopyridin-1-yl)methyl]phenyl}methyl)pyrazole-4-carboxamide] | – | > 40000 | 24.6 | 1
7 | Nc1nn(Cc2ccc(Cn3ccccc3=O)cc2)cc1C(=O)NCCCn1cc(Cl)cn1 [Example 21, 3-amino-N-[3-(4-chloropyrazol-1-yl)propyl]-1-({4-[(2-oxopyridin-1-yl)methyl]phenyl}methyl)pyrazole-4-carboxamide] | 56 | > 40000 | 2790 | –
8 | COCc1nn(Cc2ccc(Cn3cc(C)cn3)cc2)cc1C(=O)NCCOc1cccc(Cl)c1 [Example 27, N-[2-(3-chlorophenoxy)ethyl]-3-(methoxymethyl)-1-({4-[(4-methylpyrazol-1-yl)methyl]phenyl}methyl)pyrazole-4-carboxamide] | 0 | > 10000 | 231 | –
9 | O=C(NCCOc1cccc(Cl)c1)c1cn(Cc2ccc(N3CCCC3)nc2)nc1C(F)(F)F [Example 28, N-[2-(3-chlorophenoxy)ethyl]-1-{[6-(pyrrolidin-1-yl)pyridin-3-yl]methyl}-3-(trifluoromethyl)pyrazole-4-carboxamide] | 0 | > 10000 | 2390 | –
10 | Nc1nn(Cc2ccc(Cn3ccccc3=O)cc2)cc1C(=O)NCCOc1cccc(Cl)c1Cl [Example 29, 3-amino-N-[2-(2,3-dichlorophenoxy}ethyl]-1-({4-[(2-oxopyridin-1-yl)methyl]phenyl}methyl)pyrazole-4-carboxamide] | 0 | > 40000 | 2930 | –
11 | Nc1nn(Cc2ccc(Cn3ccccc3=O)cc2)cc1C(=O)NCCOc1ccc(Cl)c(Cl)c1 [Example 30, 3-amino-N-[2-(3,4-dichlorophenoxy}ethyl]-1-({4-[(2-oxopyridin-1-yl)methyl]phenyl}methyl)pyrazole-4-carboxamide] | 0 | > 40000 | 96.8 | –
12 | Nc1nn(Cc2ccc(Cn3ccccc3=O)cc2)cc1C(=O)NCCOc1cc(Cl)cc(Cl)c1 [Example 31, 3-amino-N-[2-(3,5-dichlorophenoxy)ethyl]-1-({4-[(2-oxopyridin-1-yl)methyl]phenyl}methyl)pyrazole-4-carboxamide] | 47 | > 40000 | 646 | –
13 | N#Cc1ccc(Cl)cc1OCCNC(=O)c1cn(Cc2ccc(Cn3ccccc3=O)cc2)nc1N [Example 32, 3-amino-N-[2-(5-chloro-2-cyanophenoxy)ethyl]-1-({4-[(2-oxopyridin-1-yl)methyl]phenyl}methyl)pyrazole-4-carboxamide] | 10 | > 40000 | 10.1 | –
14 | Cc1cc(Cl)cc(OCCNC(=O)c2cn(Cc3ccc(Cn4ccccc4=O)cc3)nc2N)c1 [Example 33, 3-amino-N-[2-(3-chloro-5-methylphenoxy)ethyl]-1-({4-[(2-oxopyridin-1-yl)methyl]phenyl}methyl)pyrazole-4-carboxamide] | 29 | > 40000 | 114 | –
15 | CN(C(=O)CNC(=O)c1cn(Cc2ccc(Cn3ccccc3=O)cc2)nc1N)c1cccc(Cl)c1 [Example 40, 2-{[3-amino-1-({4-[(2-oxopyridin-1-yl)methyl]phenyl}methyl)pyrazol-4-yl]formamido}-N-(3-chlorophenyl)-N-methylacetamide] | 0 | > 40000 | 12.6 | –
16 | CN(CCNC(=O)c1cn(Cc2ccc(Cn3ccccc3=O)cc2)nc1N)c1cccc(Cl)c1 [Example 41, 3-amino-N-{2-[(3-chlorophenyl)(methyl)amino]ethyl}-1-({4-[(2-oxopyridin-1-yl)methyl]phenyl}methyl)pyrazole-4-carboxamide] | 0 | > 40000 | 264 | –
17 | Nc1nn(Cc2ccc(Cn3ccccc3=O)cc2)cc1C(=O)NCCCc1cccc(Cl)c1 [Example 42, 3-amino-N-[3-(3-chlorophenyl)propyl]-1-({4-[(2-oxopyridin-1-yl)methyl]phenyl}methyl)pyrazole-4-carboxamide] | 0 | > 40000 | 3.2 | –

Continued, values first:

Row | inhibition at 40 µM [1] [%] | IC50 [2] [nM] | IC50 [3] [nM] | % Inhibition @ 40 μM (human FXIa) [1] [%] | SMILES
18 | 0 | > 10000 | 68.4 | – | O=C(NCCOc1cccc(Cl)c1)c1cn(Cc2ccc(Cn3ccccc3=O)cc2)nc1C1CC1 [Example 5, N-[2-(3-chlorophenoxy)ethyl]-3-cyclopropyl-1-({4-[(2-oxopyridin-1-yl)methyl]phenyl}methyl)pyrazole-4-carboxamide]
19 | 0 | > 10000 | 16.6 | – | COCc1nn(Cc2ccc(Cn3ccccc3=O)cc2)cc1C(=O)NCCOc1cccc(Cl)c1 [Example 8, N-[2-(3-chlorophenoxy)ethyl]-3-(methoxymethyl)-1-({4-[(2-oxopyridin-1-yl)methyl]phenyl}methyl)pyrazole-4-carboxamide]
20 | 2 | > 10000 | 96 | – | Nc1c(C(=O)NCCOc2cccc(Cl)c2)cnn1Cc1ccc(Cn2ccccc2=O)cc1 [Example 17, 5-amino-N-[2-(3-chlorophenoxy)ethyl]-1-({4-[(2-oxopyridin-1-yl)methyl]phenyl}methyl)pyrazole-4-carboxamide]
21 | 0 | > 40000 | 2010 | – | Nc1nn(Cc2ccc(Cn3ccccc3=O)cc2)cc1C(=O)NCCOc1cncc(Cl)c1 [Example 18, 3-amino-N-{2-[(5-chloropyridin-3-yl)oxy]ethyl}-1-({4-[(2-oxopyridin-1-yl)methyl]phenyl}methyl)pyrazole-4-carboxamide]
22 | 7 | > 40000 | 92.8 | – | Nc1nn(Cc2ccc(Cn3ccccc3=O)cc2)cc1C(=O)NCCOc1cc(Cl)ccc1Cl [Example 34, 3-amino-N-[2-(2,5-dichlorophenoxy)ethyl]-1-({4-[(2-oxopyridin-1-yl)methyl]phenyl}methyl)pyrazole-4-carboxamide]
23 | 1 | > 40000 | 122 | – | CN(C)c1nn(Cc2ccc(Cn3ccccc3=O)cc2)cc1C(=O)NCCOc1cccc(Cl)c1 [Example 35, N-[2-(3-chlorophenoxy)ethyl]-3-(dimethylamino)-1-({4-[(2-oxopyridin-1-yl)methyl]phenyl}methyl)pyrazole-4-carboxamide]
24 | 0 | > 40000 | 6.1 | – | O=C(NCCOc1cccc(Cl)c1)c1cnn(Cc2ccc(Cn3ccccc3=O)cc2)c1 [Example 36, N-[2-(3-chlorophenoxy)ethyl]-1-({4-[(2-oxopyridin-1-yl)methyl]phenyl}methyl)pyrazole-4-carboxamide]
25 | 8 | > 40000 | 18.5 | – | CNc1nn(Cc2ccc(Cn3ccccc3=O)cc2)cc1C(=O)NCCOc1cccc(Cl)c1 [Example 37, N-[2-(3-Chlorophenoxy)ethyl]-3-(methylamino)-1-({4-[(2-oxopyridin-1-yl)methyl]phenyl}methyl)pyrazole-4-carboxamide]
